PMC3038857, “Using Nuclear Receptor Activity to Stratify Hepatocarcinogens” (PLoS ONE, 2011)

target: T1, AR (androgen receptor) (Homo sapiens, UniProt P10275); experiment: NCGC_AR_Antagonist: GAL4 BLAM Reporter gene assay: AR; format: cell-based; details: antagonist mode
T1 construct: expressed in transfected cells
T1 sequence (P10275 1-920): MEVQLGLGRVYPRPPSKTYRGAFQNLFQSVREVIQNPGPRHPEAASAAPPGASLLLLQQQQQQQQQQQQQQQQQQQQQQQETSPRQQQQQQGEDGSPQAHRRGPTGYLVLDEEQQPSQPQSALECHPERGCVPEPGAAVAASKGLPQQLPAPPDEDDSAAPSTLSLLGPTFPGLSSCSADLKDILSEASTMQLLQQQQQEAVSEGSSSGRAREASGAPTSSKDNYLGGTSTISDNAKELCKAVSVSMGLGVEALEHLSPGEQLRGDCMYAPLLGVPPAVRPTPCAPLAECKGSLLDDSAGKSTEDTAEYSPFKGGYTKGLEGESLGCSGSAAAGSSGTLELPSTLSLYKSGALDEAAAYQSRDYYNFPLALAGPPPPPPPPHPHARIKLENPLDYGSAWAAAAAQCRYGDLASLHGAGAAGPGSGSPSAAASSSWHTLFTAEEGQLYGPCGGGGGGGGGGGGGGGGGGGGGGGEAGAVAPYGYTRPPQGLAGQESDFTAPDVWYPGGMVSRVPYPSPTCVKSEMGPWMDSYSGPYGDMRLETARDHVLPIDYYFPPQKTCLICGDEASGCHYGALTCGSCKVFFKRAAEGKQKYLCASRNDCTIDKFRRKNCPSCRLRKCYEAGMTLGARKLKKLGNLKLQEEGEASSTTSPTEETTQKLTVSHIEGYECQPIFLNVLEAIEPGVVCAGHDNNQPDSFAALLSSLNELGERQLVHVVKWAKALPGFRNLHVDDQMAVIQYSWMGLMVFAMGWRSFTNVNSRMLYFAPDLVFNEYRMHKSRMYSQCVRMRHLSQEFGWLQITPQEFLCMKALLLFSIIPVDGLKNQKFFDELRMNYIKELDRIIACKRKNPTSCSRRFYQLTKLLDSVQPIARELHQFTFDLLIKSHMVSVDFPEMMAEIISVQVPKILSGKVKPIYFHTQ
Method: These assays measure binding constants and enzyme inhibition values for nuclear receptors. The targets include [drawing 67] , [drawing 68] , [drawing 69] , [drawing 70] , [drawing 71] , [drawing 72] , [drawing 73] , [drawing 74] , [drawing 75] and [drawing 76] . Each of the nuclear receptor targets was measured in agonist mode. Assays were run at the NIH Chemical Genomics Center (Rockville, MD).
Cell-based HTS Assays: These assays measuring binding constants and enzyme inhibition values for nuclear receptors. The targets include AR, ER, FXR, LXR, PPARα, PPARδ, PPARγ, RXRα, RXRβ and PXR. Each of the nuclear receptor targets was measured in both agonist and antagonist mode, but the antagonist data is still undergoing analysis due to possible interference between cytotoxicity and assay activity, so antagonist mode data were not used in the present analysis. Assays were run at the NIH Chemical Genomics Center (Rockville, MD) as part of the Tox21 collaboration. […] The R^2 was required to be ≥0.5. Values where only the highest concentration exceeded 50% activity were excluded to eliminate weak or false positives. Detailed description of the methods, data and analysis methods for this dataset will be presented in a separate publication.

Work on `CC(C)Oc1cc(-n2nc(C(C)(C)C)oc2=O)c(Cl)cc1Cl` [row 225] yielded an NCGC_AR_Antagonist of 4.167.

same assay, conditions: antagonist mode; scale not given, looks like -log10 of molar active concentration; 0 = no activity

In order of rising NCGC_AR_Antagonist:
1. COc1ccc(-c2ccccc2)cc1NNC(=O)OC(C)C [r38]  0
2. N#Cc1cc(Br)c(O)c(Br)c1 [r44]  0
3. CC(C)N1C(=O)N(c2ccccc2)CS/C1=N\C(C)(C)C [r45]  0
4. CCSC(=O)N(CC(C)C)CC(C)C [r49]  0
5. CC1=C(C(=O)Nc2ccccc2)SCCO1 [r53]  0
6. Cc1ccccc1CO[C@@H]1C[C@@]2(C(C)C)CC[C@]1(C)O2 [r64]  0
7. CC(C)(c1ccc(O)cc1)c1ccc(O)cc1 [r40]  4.137
8. CCCCOCN(C(=O)CCl)c1c(CC)cccc1CC [r46]  4.347
